# Reference: US20150010928A1, “MEANS AND METHODS FOR ASSESSING AN ENDOCRINE DISEASE OR DISORDER” (priority 2012, published 2015)
# Marks after values point to notes of the source that are not given here.
# Tested on: male rats
# Test: Plasma metabolite profiling (GC-MS, LC-MS, SPE-LC-MS) in male rats dosed once daily over 28 days (OECD 407)
# Assay type: in vivo, rat
# Conditions: high dose; for 3-Methoxytyrosine / 3-O-Methylsphingosine (d18:1) / 5-O-Methylsphingosine (d18:1) / Androstenedione / Arachidonic acid (C20:cis[5,8,11,14]4) / Behenic acid (C22:0) / Cholesterol / Cysteine / Dodecanol / Eicosanoic acid (C20:0) / Galactose, lipid fraction / Glycerol phosphate, lipid fraction / Histidine / Indole-3-lactic acid / Lignoceric acid (C24:0) / Nervonic acid (C24:cis[15]1) / Noradrenaline (Norepinephrine) / Phosphate, lipid fraction / Phosphatidylcholine (C18:0, C18:2) / Phosphatidylcholine (C18:0, C20:3) / Phosphatidylcholine (C18:0, C22:6) / Phosphatidylcholine (C18:0,C18:1) / Phytosphingosine / Stearic acid (C18:0) / Testosterone / Threonine / Tricosanoic acid (C23:0) / Tryptophan / alpha-Tocopherol / beta-Sitosterol / dihomo-gamma-Linolenic acid (C20:cis[8,11,14]3) / erythro-Sphingosine (d18:1) / myo-Inositol-2-phosphate, lipid fraction / threo-Sphingosine (d18:1): Table 11a; for 3-Hydroxybutyrate / 4-Hydroxy-3-methoxyphenylglycol (HMPG) / 18-Hydroxy-11-deoxycorticosterone / 21-Hydroxyprogesterone (11-Deoxycorticosterone) / Citrate / Coenzyme Q9 / Coenzyme Q10 / Corticosterone / Metanephrine / Palmitoleic acid (C16:cis[9]1) / Phosphatidylcholine (C16:0, C16:0) / Progesterone / trans-4-Hydroxyproline: Table 11b; for 3-Hydroxybutyrate, ratio versus control / 18-Hydroxy-11-deoxycorticosterone, ratio versus control / Ceramide (d18:1, C24:1), ratio versus control / Coenzyme Q10, ratio versus control / Corticosterone, ratio versus control / Metanephrine, ratio versus control / Tricosanoic acid (C23:0), ratio versus control / alpha-Tocopherol, ratio versus control / trans-4-Hydroxyproline, ratio versus control: male rats, plasma
# Procedure, shortened: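 Polar and lipid fractions profiled by GC-MS and LC-MS/MRM, steroids by online SPE-LC-MS; pool-normalized data compared to controls by Welch test as treatment ratios and p-values.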
smiles,measurement,setting,value
CC(=O)O[C@]1(C(C)=O)CC[C@H]2[C@@H]3C=C(Cl)C4=CC(=O)[C@@H]5C[C@@H]5[C@]4(C)[C@H]3CC[C@@]21C [Cyproteron Acetate],3-Methoxytyrosine,m7,1.37 *
same,3-O-Methylsphingosine (d18:1),m7,1.73 *
same,5-O-Methylsphingosine (d18:1),m7,1.83 *
same,Androstenedione,m7,4.65^
same,"Arachidonic acid (C20:cis[5,8,11,14]4)",m7,1.35 *
same,Behenic acid (C22:0),m7,1.38 *
same,Cholesterol,m7,1.33 *
same,Cysteine,m7,1.3 *
same,Dodecanol,m7,1.26 *
same,Eicosanoic acid (C20:0),m7,1.06^
same,"Galactose, lipid fraction",m7,1.37 *
same,"Glycerol phosphate, lipid fraction",m7,1.57 *
same,Histidine,m7,1.39 *
same,Indole-3-lactic acid,m7,1.13 *
same,Lignoceric acid (C24:0),m7,1.46 *
same,Nervonic acid (C24:cis[15]1),m7,1.69 *
same,Noradrenaline (Norepinephrine),m7,1.61 *
same,"Phosphate, lipid fraction",m7,1.32 *
same,"Phosphatidylcholine (C18:0, C18:2)",m7,1.04 *
same,"Phosphatidylcholine (C18:0, C20:3)",m7,1.03^
same,"Phosphatidylcholine (C18:0, C22:6)",m7,1.31 *
same,"Phosphatidylcholine (C18:0,C18:1)",m7,1.09 *
same,Phytosphingosine,m7,1.05^
same,Stearic acid (C18:0),m7,1.44 *
same,Testosterone,m7,3.32^
same,Threonine,m7,1.78 *
same,Tricosanoic acid (C23:0),m7,1.48 *
same,Tryptophan,m7,1.1 *
same,alpha-Tocopherol,m7,1.22 *
same,beta-Sitosterol,m7,2.11 *
same,"dihomo-gamma-Linolenic acid (C20:cis[8,11,14]3)",m7,1.66 *
same,erythro-Sphingosine (d18:1),m7,1.68 *
same,"myo-Inositol-2-phosphate, lipid fraction",m7,1.65 *
same,threo-Sphingosine (d18:1),m7,1.39 *
same,3-Hydroxybutyrate,m7,0.58 *
same,4-Hydroxy-3-methoxyphenylglycol (HMPG),m7,1.11^
same,18-Hydroxy-11-deoxycorticosterone,m7,0.03 *
same,21-Hydroxyprogesterone (11-Deoxycorticosterone),m7,0.3 *
same,Citrate,m7,1.24^
same,Coenzyme Q9,m7,0.58 *
same,Coenzyme Q10,m7,0.49 *
same,Corticosterone,m7,0.04 *
same,Metanephrine,m7,0.91^
same,Palmitoleic acid (C16:cis[9]1),m7,0.88 *
same,"Phosphatidylcholine (C16:0, C16:0)",m7,0.78 *
same,Progesterone,m7,0.4 *
same,trans-4-Hydroxyproline,m7,0.53 *
same,3-Methoxytyrosine,m14,1.81 *
same,3-O-Methylsphingosine (d18:1),m14,2.19 *
same,5-O-Methylsphingosine (d18:1),m14,2.18 *
same,Androstenedione,m14,3.8 *
same,"Arachidonic acid (C20:cis[5,8,11,14]4)",m14,2.03 *
same,Behenic acid (C22:0),m14,1.52 *
same,Cholesterol,m14,1.63 *
same,Cysteine,m14,1.28 *
same,Dodecanol,m14,1.71 *
same,Eicosanoic acid (C20:0),m14,1.15
same,"Galactose, lipid fraction",m14,2.57 *
same,"Glycerol phosphate, lipid fraction",m14,2.05 *
same,Histidine,m14,1.17
same,Indole-3-lactic acid,m14,1.15 *
same,Lignoceric acid (C24:0),m14,1.78 *
same,Nervonic acid (C24:cis[15]1),m14,2.55 *
same,Noradrenaline (Norepinephrine),m14,1.22
same,"Phosphate, lipid fraction",m14,1.8 *
same,"Phosphatidylcholine (C18:0, C18:2)",m14,1.04
same,"Phosphatidylcholine (C18:0, C20:3)",m14,1.16 *
same,"Phosphatidylcholine (C18:0, C22:6)",m14,1.5 *
same,"Phosphatidylcholine (C18:0,C18:1)",m14,1.48 *
same,Phytosphingosine,m14,1.23 *
same,Stearic acid (C18:0),m14,2.3 *
same,Testosterone,m14,2.63 *
same,Threonine,m14,2.58 *
same,Tricosanoic acid (C23:0),m14,1.3 *
same,Tryptophan,m14,1.11 *
same,alpha-Tocopherol,m14,1.32 *
same,beta-Sitosterol,m14,2.16 *
same,"dihomo-gamma-Linolenic acid (C20:cis[8,11,14]3)",m14,2.78 *
same,erythro-Sphingosine (d18:1),m14,1.92 *
same,"myo-Inositol-2-phosphate, lipid fraction",m14,2.78 *
same,threo-Sphingosine (d18:1),m14,2 *
same,3-Hydroxybutyrate,m14,0.73 *
same,4-Hydroxy-3-methoxyphenylglycol (HMPG),m14,0.99^
same,18-Hydroxy-11-deoxycorticosterone,m14,0.01 *
same,21-Hydroxyprogesterone (11-Deoxycorticosterone),m14,0.41 *
same,Citrate,m14,0.73 *
same,Coenzyme Q9,m14,0.74 *
same,Coenzyme Q10,m14,0.86^
same,Corticosterone,m14,0.01 *
same,Metanephrine,m14,0.66 *
same,Palmitoleic acid (C16:cis[9]1),m14,0.74 *
same,"Phosphatidylcholine (C16:0, C16:0)",m14,0.87 *
same,Progesterone,m14,0.54 *
same,trans-4-Hydroxyproline,m14,0.44 *
same,3-Methoxytyrosine,m28,2.05 *
same,3-O-Methylsphingosine (d18:1),m28,2.98 *
same,5-O-Methylsphingosine (d18:1),m28,2.54 *
same,Androstenedione,m28,0.94^
same,"Arachidonic acid (C20:cis[5,8,11,14]4)",m28,2.35 *
same,Behenic acid (C22:0),m28,1.57 *
same,Cholesterol,m28,1.97 *
same,Cysteine,m28,1.54 *
same,Dodecanol,m28,1.52 *
same,Eicosanoic acid (C20:0),m28,1.71 *
same,"Galactose, lipid fraction",m28,1.68 *
same,"Glycerol phosphate, lipid fraction",m28,2.16 *
same,Histidine,m28,1.37 *
same,Indole-3-lactic acid,m28,1.15 *
same,Lignoceric acid (C24:0),m28,1.9 *
same,Nervonic acid (C24:cis[15]1),m28,2.83 *
same,Noradrenaline (Norepinephrine),m28,1.39 *
same,"Phosphate, lipid fraction",m28,1.86 *
same,"Phosphatidylcholine (C18:0, C18:2)",m28,1.03^
same,"Phosphatidylcholine (C18:0, C20:3)",m28,1.18 *
same,"Phosphatidylcholine (C18:0, C22:6)",m28,1.67 *
same,"Phosphatidylcholine (C18:0,C18:1)",m28,1.55*
same,Phytosphingosine,m28,1.68 *
same,Stearic acid (C18:0),m28,2.71 *
same,Testosterone,m28,0.56^
same,Threonine,m28,1.73 *
same,Tricosanoic acid (C23:0),m28,1.39 *
same,Tryptophan,m28,1.14 *
same,alpha-Tocopherol,m28,1.44 *
same,beta-Sitosterol,m28,2.6 *
same,"dihomo-gamma-Linolenic acid (C20:cis[8,11,14]3)",m28,4.01 *
same,erythro-Sphingosine (d18:1),m28,2.2 *
same,"myo-Inositol-2-phosphate, lipid fraction",m28,3.26 *
same,threo-Sphingosine (d18:1),m28,2.13 *
same,3-Hydroxybutyrate,m28,0.68 *
same,4-Hydroxy-3-methoxyphenylglycol (HMPG),m28,0.82 *
same,18-Hydroxy-11-deoxycorticosterone,m28,0 *
same,21-Hydroxyprogesterone (11-Deoxycorticosterone),m28,0.01 *
same,Citrate,m28,0.81
same,Coenzyme Q9,m28,0.59 *
same,Coenzyme Q10,m28,0.7 *
same,Corticosterone,m28,0 *
same,Metanephrine,m28,0.58 *
same,Palmitoleic acid (C16:cis[9]1),m28,1.42 *
same,"Phosphatidylcholine (C16:0, C16:0)",m28,0.79 *
same,Progesterone,m28,0.03 *
same,trans-4-Hydroxyproline,m28,0.52 *
same,"3-Hydroxybutyrate, ratio versus control",day 7,0.58 *
same,"18-Hydroxy-11-deoxycorticosterone, ratio versus control",day 7,0.08 *
same,"Ceramide (d18:1, C24:1), ratio versus control",day 7,1
same,"Coenzyme Q10, ratio versus control",day 7,0.49 *
same,"Corticosterone, ratio versus control",day 7,0.04 *
same,"Metanephrine, ratio versus control",day 7,0.91
same,"Tricosanoic acid (C23:0), ratio versus control",day 7,1.48 *
same,"alpha-Tocopherol, ratio versus control",day 7,1.22 *
same,"trans-4-Hydroxyproline, ratio versus control",day 7,0.53 *
same,"3-Hydroxybutyrate, ratio versus control",day 14,0.73 *
same,"18-Hydroxy-11-deoxycorticosterone, ratio versus control",day 14,0.08 *
same,"Ceramide (d18:1, C24:1), ratio versus control",day 14,1.47 *
same,"Coenzyme Q10, ratio versus control",day 14,0.86
same,"Corticosterone, ratio versus control",day 14,0.01 *
same,"Metanephrine, ratio versus control",day 14,0.66 *
same,"Tricosanoic acid (C23:0), ratio versus control",day 14,1.3 *
same,"alpha-Tocopherol, ratio versus control",day 14,1.32 *
same,"trans-4-Hydroxyproline, ratio versus control",day 14,0.44 *
same,"3-Hydroxybutyrate, ratio versus control",day 28,0.68 *
same,"18-Hydroxy-11-deoxycorticosterone, ratio versus control",day 28,0.02 *
same,"Ceramide (d18:1, C24:1), ratio versus control",day 28,2.22 *
same,"Coenzyme Q10, ratio versus control",day 28,0.7 *
same,"Corticosterone, ratio versus control",day 28,0 *
same,"Metanephrine, ratio versus control",day 28,0.58 *
same,"Tricosanoic acid (C23:0), ratio versus control",day 28,1.39 *
same,"alpha-Tocopherol, ratio versus control",day 28,1.44 *
same,"trans-4-Hydroxyproline, ratio versus control",day 28,0.52 *
